Source: article PMC12261321, “Inhibitors of the Bacterioferritin Ferredoxin Complex Dysregulate Iron Homeostasis and Kill and Biofilm-Embedded Cells” (ACS Infectious Diseases, 2025)

Each compound was assayed on A. baumannii 5075 (assay: Siderophores secreted by A. baumannii (CAS assay)). Settings: 5075, 20 h, M63 without citrate; compounds 40 μM, SB-17–140 80 μM.
Assay type: cell-based
Method: Unlike pyoverdine, the siderophores secreted by are not fluorescent. Consequently, to measure siderophore secretion from planktonic cultures of , we decided to utilize the Chrome azurol S (CAS) assay, a well-known universal colorimetric method used to detect siderophores. , To this end, planktonic cells of 5075 were cultured for 20 h in the presence of sub-MICs of a representative number of inhibitors in M63 media not containing citrate, followed by analysis of the cell-free spent media by the CAS assay. […] These observations support the hypothesis that active compounds engage their target (Ab Bfr) and block the Ab Bfr–Bfd complex in , trapping iron in Ab Bfr and causing intracellular iron limitation, which in turn elicits a siderophore overproduction phenotype. […]
reported13 with some modifications. Cells were cultured in modified M63 media (2 g / L ( N H 4)2SO4, 13.6 g/L KH2PO4 (Sigma Aldrich), 2 g/L glucose, 4 g/L cit ric acid, 5 g/ L technical grade casamino acids (B D scientific), 0.24 g/L MgSO4 (Alfa A esar), and 0.025% (w/v) HPMC, pH 7.0 adjusted with KOH) . […]
Determination of Siderophores Secreted by A. baumannii . The chromo azurol S (CAS) solution was prepared as previously reported18 with some modifications. The blue dye solution (0.6 g/L CAS ( ACROS Organics), 100 μM FeCl3·6H2O, and 0.73 g/L hexadecyltrimethylammonium bromide (HDTMA, ACROS Organics) was autoclaved and stored in the dark. The MM9-PIPES buffer solution (3 g/L KH2PO4, 5 g/L NaCl, 10 g/L NH4C l, 32.24 g/L piperazine -1,4-bis-2- ethanesulfonic acid (PIPES , Sigma Aldrich), pH 6.75) was sterilized using a 0.22 µm syringe filter (VWR). Prior to every experimen t, blue dye solution (0.5 mL) was mixed with 4.5 mL of MM9-PIPES solution. An overnight culture of A. baumannii 5075 was diluted to OD600 = 0.0001 with modified M63 media (no citric acid) supplemented with 4 μ M Fe and transferred to a 96-well plate, wh ere it was cul tured for 20 […]
h at 35 °C and 205 cpm i n a plate reader (Synergy H1, BioTek). The treated cell cultures contained compound at the concentrations indicat ed in the caption of Figure 8B and […], whereas the untreated control contained 0.1% DMSO. 700 μ L was centrifuged at 16,200 x g for 10 min. 200 μ L of the clarified supern atant was mixed with the 200 μL of CAS solution and allowed to incubate at room temperatu re in the dark for 2 h prior to recording a UV-Vis spectrum (200 nm to 800 nm) in a 1.0 cm quartz cuvette with the aid of a Cary 60 UV-Vi s spectrophotometer (Agilent Technologies). The fold- change in siderophore secreted by the treated vs. untreated cells was calculated using equation S3, where Tr indicates treated cells, Un indicates DMSO control cells, […]
solution of fresh modified M63 media. The experiment was carried out in at least five biological replicates for […]
FFggFFFF cch aammggaa =(ΔΔAA 630 )UUii (S3)
Measurement of Dissociation Constant (Kd) R ecombinant Pa BfrB was expressed in E. coli and purified as previously reported.19 Apo-BfrB (devoid of heme) was utilized for the measurements to prevent heme-driven fluorescence quenching. A 0.5 mL solution contai ning 0.01 µM apo Pa-BfrB in PBS (pH = 7.4) containing0.5% DMSO was plac ed into a 1 cm quartz cuvette wh ere it was titrated with aliq uots of compound dissolved in a 50% (v/v) PBS/DMSO solution. The fluorescence quenching brought by the addition of each aliquot was monitored with the aid of an Agilent Cary Fluorometer , with excitation at 280 nm, emission at 320- 470 nm, 10 x10 nm slit width, and an average of 5 scans per spectrum. Th e binding assay included at least 8 aliquots spanning from ~ 0.1 […]
A control titration was carried out by titrati ng compound into PBS buffer. The Kd was cal culated by fitting the data to equation S4, w here Fb is the fraction bound and Fmax is the fraction bound at saturating compound concentration.
FFbb = FFmmmmmm ? [ccccmmccccccmmcc ]? (S4) […]
`O=C1NC(=O)c2c(NCc3ccc(Br)cc3O)cccc21` [EB-5-61] was tested, and the “siderophore secretion, ΔA 630 nm normalized to OD600” value was “secrete significantly higher levels of siderophore”.
For `O=C1NC(=O)c2c(NCc3cccc(Br)c3O)cccc21` [EB-5-73], the “siderophore secretion, ΔA 630 nm normalized to OD600” value was “do not elicit a siderophore overproduction phenotype”.
With `O=C1NC(=O)c2c(NCc3cc(Cl)ccc3O)cccc21` [KM-5-25, 4-((5-Chloro-2-hydroxybenzyl)amino)isoindoline-1,3-dione] the “siderophore secretion, ΔA 630 nm normalized to OD600” value was “secrete significantly higher levels of siderophore”.
For `O=C1NC(=O)c2c(NCc3c(O)cccc3Cl)cccc21` [KM-5-29], the “siderophore secretion, ΔA 630 nm normalized to OD600” value was “secrete significantly higher levels of siderophore”.
`O=C1NC(=O)c2c(NCc3cc(Br)ccc3O)cccc21` [KM-5-35, 4-((5-Bromo-2-hydroxybenzyl)amino)isoindoline-1,3-dione] was tested, and the “siderophore secretion, ΔA 630 nm normalized to OD600” value was “secrete significantly higher levels of siderophore”.
With `O=C1NC(=O)c2c(NCc3cccc4c3CCN4)cccc21` [SB-17-140] the “siderophore secretion, ΔA 630 nm normalized to OD600” value was “do not elicit a siderophore overproduction phenotype”.

These compounds were tested on P. aeruginosa PAO1 (assay: Compound intracellular accumulation in P. aeruginosa PAO1). Settings: ‡ treatment with 15 µM compound.
Assay type: cell-based
In the case of `O=C1NC(=O)c2c(NCc3cc(Cl)ccc3O)ccc(Br)c21` [SB-16-51], the “Intracell. Accum, P. aeruginosa PAO1” value is reported as 425 ± 79 nmol/1012 CFU.
For `CC(C)(C)c1ccc(O)c(CNc2cccc3c2C(=O)NC3=O)c1` [SB-16-53], the “Intracell. Accum, P. aeruginosa PAO1” value was 263 ± 40 nmol/1012 CFU.
`Cc1cc(Br)cc(CNc2cccc3c2C(=O)NC3=O)c1O` [SB-16-106] was tested, and the “Intracell. Accum, P. aeruginosa PAO1” value was 415 ± 141 nmol/1012 CFU.
`O=C1NC(=O)c2c(NCc3cc(Br)c(F)cc3O)cccc21` [SB-16-112] was tested, and the “Intracell. Accum, P. aeruginosa PAO1” value was 457 ± 22 nmol/1012 CFU.
For `O=C1NC(=O)c2c(NCc3cc(Br)ccc3O)ccc(Cl)c21` [SB-16-124], the “Intracell. Accum, P. aeruginosa PAO1” value was 558 ± 154 nmol/1012 CFU.
With `Cc1cc(Cl)cc(CNc2cccc3c2C(=O)NC3=O)c1O` [SB-16-156] the “Intracell. Accum, P. aeruginosa PAO1” value was 165 ± 18 nmol/1012 CFU.
With `Cc1cc(CNc2cccc3c2C(=O)NC3=O)c(O)cc1Br` [SB-16-183] the “Intracell. Accum, P. aeruginosa PAO1” value was 379 ± 48 nmol/1012 CFU.
